In PubChem BioAssay (NCI):
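Values below derive from 48-hour exposures of cells grown in 96-well plates, with endpoints linearly interpolated between the two concentrations bracketing the appropriate inhibition level. TGI: concentration producing complete growth inhibition.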

Tests used:
Assay in all cases: NCI-60 cell line screen, 48 h
786-0 renal = test system: 786-0 renal
A549 NSCLC = test system: A549 NSCLC
CAKI-1 renal = test system: CAKI-1 renal
COLO 205 colon = test system: COLO 205 colon
EKVX NSCLC = test system: EKVX NSCLC
HCC-2998 colon = test system: HCC-2998 colon
HS 578T breast = test system: HS 578T breast
K-562 leukemia = test system: K-562 leukemia
KM12 colon = test system: KM12 colon
NCI-H522 lung = test system: NCI-H522 lung
OVCAR-3 ovarian = test system: OVCAR-3 ovarian
SF-295 CNS = test system: SF-295 CNS
SNB-19 CNS = test system: SNB-19 CNS
SR leukemia = test system: SR leukemia
SW-620 colon = test system: SW-620 colon
TK-10 renal = test system: TK-10 renal
UACC-257 melanoma = test system: UACC-257 melanoma
MDA-MB-435 = test system: MDA-MB-435
UACC-62 melanoma = test system: UACC-62 melanoma

Structure (SMILES) | TGI (786-0 renal) [µM] | TGI (A549 NSCLC) [µM] | TGI (CAKI-1 renal) [µM] | TGI (COLO 205 colon) [µM] | TGI (EKVX NSCLC) [µM] | TGI (HCC-2998 colon) [µM] | TGI (HS 578T breast) [µM] | TGI (K-562 leukemia) [µM] | TGI (KM12 colon) [µM] | TGI (NCI-H522 lung) [µM] | TGI (OVCAR-3 ovarian) [µM] | TGI (SF-295 CNS) [µM] | TGI (SNB-19 CNS) [µM] | TGI (SR leukemia) [µM] | TGI (SW-620 colon) [µM] | TGI (TK-10 renal) [µM] | TGI (UACC-257 melanoma) [µM] | TGI (MDA-MB-435) [µM] | TGI (UACC-62 melanoma) [µM]
COc1ccc(/C=C/C(=N/NC(=O)N/N=C(/C=C/c2ccc(OC)cc2)C(C)(C)CN2CCCCC2)C(C)(C)CN2CCCCC2)cc1 | 3.15 | 3.49 | 4.33 | 3.1 | > 10 | 3.42 | 4.28 | 1.89 | 3.27 | 3.59 | 3.81 | 3.45 | 6.4 | 0.679 | 4.48 | 3.67 | 3.31 | – | –
CCOC(=O)C(=[N+]=[N-])C(=O)CN1C(=O)C2CC(C)=C(C)CC2C1O (stereo unspecified) | > 100 | > 100 | – | > 100 | > 100 | > 100 | > 100 | > 100 | > 100 | > 100 | > 100 | > 100 | > 100 | > 100 | > 100 | > 100 | > 100 | > 100 | > 100
COc1cc(OC)c2c(=O)c(OC)c(-c3ccc4c(c3)OCO4)oc2c1OC | > 100 | > 100 | > 100 | > 100 | > 100 | > 100 | > 100 | > 100 | > 100 | > 100 | > 100 | > 100 | > 100 | – | > 100 | > 100 | > 100 | > 100 | > 100
Cc1ccc(Nc2[nH]c(=O)[nH]c(=O)c2C)cc1Cl | > 100 | > 100 | > 100 | > 100 | > 100 | > 100 | > 100 | > 100 | > 100 | > 100 | > 100 | 72.3 | > 100 | – | > 100 | > 100 | > 100 | > 100 | > 100
CC(=O)Nc1ccc(-c2nc3ccccc3s2)cc1C | > 100 | – | 59 | > 100 | > 100 | > 100 | > 100 | – | > 100 | – | – | > 100 | > 100 | > 100 | > 100 | > 100 | > 100 | > 100 | > 100
CCOC(=O)C1=c2[nH]c3cccc4cccc(c43)n2C(=O)CC1c1ccccc1 (stereo unspecified) | > 100 | > 100 | > 100 | > 100 | > 100 | > 100 | > 100 | > 100 | > 100 | > 100 | – | > 100 | > 100 | > 100 | > 100 | > 100 | > 100 | > 100 | > 100
COC(=O)C(Cc1ccccc1)NP(=O)(O)OCC1OC(n2cc(I)c(=O)[nH]c2=O)CC1O (stereo unspecified) | > 100 | > 100 | > 100 | > 100 | > 100 | – | > 100 | > 100 | > 100 | > 100 | > 100 | > 100 | > 100 | > 100 | > 100 | > 100 | > 100 | > 100 | > 100
C=CCc1cc(C=C(C#N)C#N)cc(OC)c1O | > 100 | > 100 | > 100 | > 100 | > 100 | – | > 100 | > 100 | > 100 | > 100 | > 100 | > 100 | > 100 | > 100 | > 100 | > 100 | > 100 | > 100 | > 100
C[n+]1c2ccccc2n2c3ccccc3c(NCCc3ccccn3)c(C#N)c21 | 7.58 | 50.1 | 6.68 | 5.88 | 19.5 | 1.24 | 12.1 | > 100 | 29 | 3.95 | > 25.7 | 15.9 | > 26.8 | – | 3.24 | 7.88 | 16.6 | 4 | –
CCOP(=O)(Nc1ccccc1P(=O)(OCC)OCC)OCC | > 100 | > 100 | > 100 | > 100 | > 100 | > 100 | > 100 | > 100 | > 100 | > 100 | > 100 | > 100 | > 100 | – | > 100 | > 100 | > 100 | > 100 | > 100
CC1CCCCN1CC(=O)c1ccc2c(c1)Sc1ccccc1O2 (stereo unspecified) | 31.9 | 30.7 | 37.5 | > 100 | 28.7 | 41.3 | 25.7 | > 100 | 30.3 | – | 27.8 | 33 | 36 | 47.8 | 42.4 | 42.5 | 39 | 29.8 | 30.1
Cc1c(/C=N/NC(=S)Nc2ccccc2)c(=O)n(-c2ccccc2)n1C | > 100 | – | > 100 | > 100 | > 100 | > 100 | > 100 | > 100 | > 100 | – | – | > 100 | > 100 | > 100 | > 100 | > 100 | > 100 | > 100 | > 100
O=C1CCCC(=O)N1n1c(Cc2ccccc2)n[nH]c1=O | > 100 | > 100 | > 100 | > 100 | > 100 | – | > 100 | > 100 | > 100 | > 100 | > 100 | > 100 | – | > 100 | > 100 | > 100 | > 100 | > 100 | > 100
